Test results as given in PMC8113231 (Nature Communications, 2021).
Where a SMILES comes first, the peptide text is derived from it. Bridges are numbered along the chain shown (N, C = ends). [ ]: non-standard residue; d: D form. NMeF = CN[C@@H](Cc1ccccc1)C(=O)O; NMeS = CN[C@@H](CO)C(=O)O; Sar = CNCC(=O)O

Assays:
[1] = system: A/Vietnam/UT3040/2004 (H5N1/Vietnam); design: species or system cynomolgus monkeys; settings: cynomolgus monkey, in vivo
[2] = system: HA from A/California/07/2009 (H1N1); format: cell-based, influenza A virus
[3] = system: H5N1/Vac-3; format: cell-based, influenza A virus
[4] = in vitro; settings: human, serum
[5] = system: H1N1/Tokyo2619; format: cell-based, influenza A virus
[6] = system: HA on H1N1 virions; format: binding, influenza A virus
[7] = system: HA on H2N2 virions; format: binding, influenza A virus
[8] = system: A/duck/Hokkaido/Vac-3/07 (H5N1/Vac-3); assay: microbe, parasite or virus in culture; format: cell-based, influenza A virus
[9] = system: chicken red blood cells
[10] = system: A/whooper swan/Hokkaido/1/08 (H5N1); design: species or system BALB/c mice; settings: mouse, in vivo, 1.9 mg/kg/day

Compound: CC(C)[C@@H]1NC(=O)[C@H]([C@@H](C)O)NC(=O)[C@H](Cc2ccc(O)cc2)NC(=O)[C@H](Cc2c[nH]cn2)NC(=O)[C@H](CO)N(C)C(=O)[C@H](CO)NC(=O)[C@H](Cc2ccccc2)N(C)C(=O)[C@H](Cc2ccccc2)N(C)C(=O)[C@H](CC(=O)O)NC(=O)CN(C)C(=O)[C@H]([C@@H](C)O)NC(=O)[C@H](Cc2c[nH]c3ccccc23)NC(=O)CSC[C@@H](C(N)=O)NC(=O)[C@H](CCCNC(=N)N)NC(=O)[C@@H]2CCCN2C1=O [iHA-100] ({CH2CO}-WT[Sar]D[NMeF][NMeF]S[NMeS]HYTVPRC-NH2; thioether N-15)
- IFN-γ in the lungs [1]: significantly reduced
- IL-6 in the lungs [1]: significantly reduced
- IL-15 in the lungs [1]: decreased
- Virus titers in autopsy lung samples at 7 dpi [1]: low virus titers in the lungs of two monkeys
- Body temperature ([1]; 3 mg/kg/day): returned to a normal range
- Bodyweight loss ([1]; 3 mg/kg/day): relatively attenuated
- Lung weights ([1]; 3 mg/kg/day): relatively lower
- Virus in nasal, oral and bronchial swabs ([1]; 3 mg/kg/day): disappeared at 3–6 dpi
- Virus shedding after treatment (3–7 dpi), area under the curve ([1]; po): significantly lower virus shedding
- Polykaryon formation mediated by H1 HA [2]: significantly inhibited
- H5N1/Vac-3 virus-mediated RBC membrane fusion [3]: inhibited by iHA-100 in a dose-dependent manner
- half-life [4]: ~3.85 h
- H1N1/Tokyo2619 virus-mediated RBC membrane fusion [5]: inhibited by iHA-100 in a dose-dependent manner
- Binding to HA on H1N1 virions (pull-down) [6]: bound to HA
- Binding to HA on H2N2 virions (pull-down) [7]: bound to HA
- Plaque formation of H5N1/Vac-3 (screen of 28 candidates) [8]: inhibited plaque formation
- Size of viral plaques [8]: reduced the size of viral plaques
- Inhibition of hemagglutination [9]: could not
- Progression of pneumonia (histopathology) [10]: prevented the progression of pneumonia
- Survival [10]: 40%
- Survival rate, administration started 0 days after infection [10]: comparable with the survival rate in the zanamivir-treated group
- Viral replication in the lungs [10]: significantly suppressed
- Virus-related increase in lung weight [10]: significantly suppressed
